Experimental data taken from patent publication US20140147527A1, “COMPOSITIONS AND METHODS FOR TREATING EMOTIONAL-PSYCHOLOGICAL STRESS” (TSUKUBA UNIVERSITY, priority 2012, published 2014).

System: SH-SY5Y cells
Assay: Cell viability assay (MTT) in SH-SY5Y cells
Assay type: cell-based, human
Settings: H2O2 0, 50, 100, 150, 200 or 250 μM, 24 hours
Description: To determine the concentration of C. schoenanthus ethanol extracts which can be used to investigate their anti-stress effect, SH-SY5Y cells were cultured with several concentrations (1/100, 1/1000, or 1/10000 v/v dilution of C. schoenanthus ethanol extract in culturing medium) for 72 hours.
SH-SY5Y cells were treated with different concentrations of C. schoenanthus extract (at a 1/500, 1/750, 1/1000, 1/1500, or 1/2000 v/v dilution in medium) for 72 hours and cell viability was determined by MTT assay.
To evaluate whether H2O2 influences neuronal cytotoxicity, SH-SY5Y cells were treated with various concentrations of H2O2 (0, 50, 100, 150, 200, or 250 μM) for 24 hours.
A cell survival analysis was performed using 3-(4,5-Dimethylthiazol-2-yl)-2,5-diphenyltetrazolium bromide (MTT), which was dissolved in PBS to a final concentration of 5 mg/ml. […] Then, 100 μl of 10% of sodium dodecyl sulfate (SDS) was added and after overnight incubation, the absorbance was determined at 570 nm. The control wells which contained cultured cells with medium only were considered as 100% cell viability.

OO [H2O2]
cytotoxicity in SH-SY5Y cells: dose-dependent cytotoxicity
